Data reported in the NIST ThermoML archive (doi:10.1021/je5007696).

Assay: refractive index (Na D-line) (dimensionless); xn = mol fraction of the nth substance listed
Conditions: 100 kPa, Liquid, Standard Abbe refractometry

CCC(C)=O [butanone] + CCCCO
refractive index
Conditions	x1 = 0.0997	x1 = 0.1999	x1 = 0.3003	x1 = 0.4008	x1 = 0.5003	x1 = 0.6001	x1 = 0.6992	x1 = 0.7991	x1 = 0.899	x1 = 1
288.15 K	1.39943	1.3975	1.39558	1.39362	1.39169	1.38971	1.38771	1.38569	1.38364	1.38153
293.15 K	1.39733	1.39533	1.39333	1.39131	1.38933	1.38729	1.38525	1.38316	1.38108	1.37892
298.15 K	1.39524	1.39315	1.39107	1.38899	1.38696	1.38486	1.38276	1.38062	1.37849	1.37631
303.15 K	1.3931	1.39095	1.38882	1.38669	1.38457	1.38241	1.38025	1.37807	1.37589	1.37366
308.15 K	1.39096	1.38872	1.38651	1.38433	1.38215	1.37995	1.37775	1.37551	1.3733	1.37102
313.15 K	1.38881	1.38649	1.38421	1.38196	1.37973	1.37748	1.37522	1.37293	1.37065	1.36834
318.15 K	1.38664	1.38427	1.38192	1.37958	1.37728	1.37496	1.37265	1.37031	1.36798	1.36565
323.15 K	1.38447	1.38203	1.37959	1.37718	1.3748	1.37244	1.37008	1.36769	1.36531	1.36294
